Assay [1] deals with pentosidine formation. The assay can be described thus: Inhibitory effect on AGEs (pentosidine) formation in serum of renal failure patients. The format is biochemical, human. The following applies: final concentration 5 mM, 1 week at 37° C.; for Pentosidine Formation Ratio (%): control as 100%; for AGE Formation Inhibition Ratio (%): determined from the pentosidine formation ratio. On the procedure:
To 450 μl of protein (serum of renal failure patients with an informed consent) was added 50 μl of a solution of each test compound in dimethylsulfoxide (final concentration: 5 mM), and the resulting mixture was incubated for 1 week at 37° C. The quantity of pentosidine, which is one of the AGEs formed, was subsequently measured as follows.
First, in order to release the pentosidine formed in the protein, 50 μl of 10% trichloroacetic acid was added to 50 μl of the reacted sample, and the mixture was centrifuged to precipitate the protein that was then collected. The collected protein was washed with 300 μl of 5% trichloroacetic acid and dried; 100 μl of 6 N hydrochloric acid was subsequently added, and hydrolysis was performed for 16 hours at 110° C. The quantity of pentosidine (nmol/l) formed was measured by HPLC using a fluorescence detector (ODS C18, 4.6×250 mm, 335 nm, 385 nm), according to a gradient method (30 minutes, 1.0 ml/min) using a mobile phase of distilled water containing 0.1% trifluoroacetic acid/80% acetonitrile containing 0.08% trifluoroacetic acid (Miyata, T et al.,: J. Am. Soc., Nephrol., 7, 1198-1206, 1996; Miyata, T., et al., Proc. Natl. Acad. Sci., USA, 93 2353-2358, 1996).
In order to evaluate the inhibitory effect of each test compound on AGE formation, the proportion of the quantity of pentosidine formed was calculated as the ratio (%) of pentosidine formation relative to the quantity of pentosidine formed with a control as 100%. Further, from the calculated value, the ratio of inhibition of pentosidine formation (the ratio (%) of inhibition of AGE formation) was also determined.

Assay [2] relates to pentosidine formation. The assay can be described thus: Inhibitory effect on pentosidine formation in plasma of hemodialysis patients. The format is biochemical, human. To be noted: final concentrations 0.8, 2.0, and 5.0 mM, 1 week at 37° C., FIG. 13. As for the experimental part:
(§1) Plasma was collected from hemodialysis patients prior to dialysis with the patients' consent, and the plasma was filtered and sterilized. To the plasma (450 μL) was added solutions of TM-2002 in dimethylsulfoxide (50 μL) (final concentrations: 0.8, 2.0, and 5.0 mM), and the mixtures were incubated for 1 week at 37° C. The levels of the pentosidine formation were measured.
Pentosidine was measured as follows. To each sample (50 μL) after incubation was added an equal volume of 10% trichloroacetic acid, and the mixture was subsequently centrifuged at 5,000 g for 5 minutes. After the supernatant was removed, the pellet was washed with 5% trichloroacetic acid (300 μL). […] The concentration of the released pentosidine was measured by reverse-phase HPLC using a fluorescence detector (RF-10A, Shimadzu Corporation) (Miyata, T. et al.; Proc. Natl. Acad. Sci. USA, Vol. 93, p. 2353-2358, 1996). The effluent was monitored at the excitation/emission wavelength of 335/385 nm. […]
The inhibitory effect was evaluated by comparison with a positive control (pyridoxamine (Sigma)), which was reacted in the same manner as Compound TM-2002. […] The results (the quantities of pentosidine: nmol/ml) are shown in FIG. 13, wherein the “control” hereinbelow means a negative control using only the solvent.

The subject of assay [3] is pentosidine formation. As to the kind of experiment: Inhibitory activity on pentosidine formation, samples incubated with BSA and arabinose. In kind it is biochemical. The following applies: incubated with BSA and arabinose instead of patient plasma; for Pentosidine Formation Ratio (%) at 5 Concentration: Table 13. As for the experimental part:
as §1
Pentosidine was measured as follows. To each sample (50 μL) after incubation was added an equal volume of 10% trichloroacetic acid, and the mixture was subsequently centrifuged at 5,000 g for 5 minutes. After the supernatant was removed, the pellet was washed with 5% trichloroacetic acid (300 μL). The pellet was dried under reduced pressure, and subsequently hydrolyzed in a 6N HCl solution (100 μL) under a nitrogen atmosphere for 16 hours at 110° C. To the acid hydrolysate was then added 5N NaOH (100 μL) and 0.5 M phosphate buffer (pH 7.4) (200 μL); the mixture was subsequently filtered through a micropore filter with 0.5 μm pores and diluted with PBS. The concentration of the released pentosidine was measured by reverse-phase HPLC using a fluorescence detector (RF-10A, Shimadzu Corporation) (Miyata, T. et al.; Proc. Natl. Acad. Sci. USA, Vol. 93, p. 2353-2358, 1996). The effluent was monitored at the excitation/emission wavelength of 335/385 nm. Synthetic pentosidine was used as the reference material. The detection limit of pentosidine was 0.1 pmol/mg protein.
(2) Other edaravone analogues (Compounds (1) or (2)) were investigated for their inhibitory activities on pentosidine formation in the same manner as in Section (1) above, except that the samples were incubated with BSA and arabinose instead of the patient plasma. In the tables, “-” means that the test was not conducted.

SMILES strings stand for the structures.

Regarding `NC1=NN(c2ccccc2)C(=O)C1C(=O)C(=O)Nc1ccccc1` (stereo not drawn) [(1)], in the assay with pentosidine formation [1], the “Pentosidine Formation Ratio (%)” value turned out to be 18.1% and the “AGE Formation Inhibition Ratio (%)” value was 81.9%.

As to `NC1=NN(c2ccccc2)C(=O)C1C(=O)C(=O)Nc1nccs1` (stereo not drawn) [(2)], in the assay on pentosidine formation [1], the “Pentosidine Formation Ratio (%)” value was 26.1% and the “AGE Formation Inhibition Ratio (%)” value is reported as 73.9%.

`CC1=NN(c2ccc(N)cc2)C(=O)C1CCO` (stereo not drawn) [(5)]: in the assay on pentosidine formation [1], the “Pentosidine Formation Ratio (%)” value came to 9.33% and the “AGE Formation Inhibition Ratio (%)” value is listed as 90.67%.

`NC1=NN(c2ccccc2)C(=O)C1Sc1nnnn1-c1ccccc1` (stereo not drawn) [(6)]: in the assay with pentosidine formation [1], the “Pentosidine Formation Ratio (%)” value was 16.8% and the “AGE Formation Inhibition Ratio (%)” value was determined as 83.2%. The matching figures for `CC1=NN(c2ccccc2)C(=O)C1CCC(=O)O` (stereo not drawn) [(7)]: 27.2% and 72.8%. The matching figures for `CC(=O)NC1C(=O)N(c2ccccc2)N=C1C` (stereo not drawn) [(8)]: 23.5% and 76.5%.

As to `CC1=NN(c2ccccc2)C(=O)C1C(c1ccccc1)c1c(C)nn(-c2ccccc2)c1O` (stereo not drawn) [(9)], in the assay with pentosidine formation [1], the “Pentosidine Formation Ratio (%)” value turned out to be 30.8% and the “AGE Formation Inhibition Ratio (%)” value came to 69.2%.

For `O=C1C2CCCC2=NN1c1ccccc1` (stereo not drawn) [(10)], in the assay on pentosidine formation [1], the “Pentosidine Formation Ratio (%)” value was determined as 18.0% and the “AGE Formation Inhibition Ratio (%)” value is reported as 82.0%. The matching figures for `CC1=NN(c2ccccc2)C(=O)C1NS(=O)(=O)c1ccc(C)cc1` (stereo not drawn) [(11)]: 24.9% and 75.1%. For `CC1=NN(c2cccc([N+](=O)[O-])c2)C(=O)C1Sc1nnnn1-c1ccccc1` (stereo not drawn) [(13)], in that order: 45.4% and 54.6%. For `O=C(NC1=NN(c2ccccc2)C(=O)C1Sc1nnnn1-c1ccccc1)c1ccccc1` (stereo not drawn) [(14)], in that order: 22.1% and 77.9%. As for `C/C(=N\O)C1C(=O)N(c2ccccc2)N=C1c1ccccc1` (stereo not drawn) [(16)], in the assay on pentosidine formation [1], the “Pentosidine Formation Ratio (%)” value came out at 25.8% and the “AGE Formation Inhibition Ratio (%)” value worked out at 74.2%. As to `CC1=NN(c2ccccc2)C(=O)C1C1C(=O)N(c2ccccc2)N=C1C` (stereo not drawn) [(17)], in the assay with pentosidine formation [1], the “Pentosidine Formation Ratio (%)” value is on record as 35.0% and the “AGE Formation Inhibition Ratio (%)” value came out at 65.0%. For `CCC1C(=O)N(c2ccc(Cl)cc2)N=C1C` (stereo not drawn) [(18)], in that order: 18.0% and 82.0%.

For the compound `CCCC1=NN(c2ccccc2)C(=O)C1CC(=O)c1ccccc1` (stereo not drawn) [(20)], in the assay with pentosidine formation [1], the “Pentosidine Formation Ratio (%)” value is given as 12.4% and the “AGE Formation Inhibition Ratio (%)” value was 87.6%. `Cc1ncc2c(c1O)C(c1c(C)nn(-c3ccccc3)c1O)OC2` (stereo not drawn) [No. 68, 1-(5-hydroxy-3-methyl-1-phenyl-1H-pyrazol-4-yl)-6-methyl-1,3-dihydro-furo[3,4-c]pyridin-7-ol]: the “inhibition of pentosidine formation compared to pyridoxamine (positive control)” value in the assay on pentosidine formation [2] was “significantly inhibits the pentosidine formation as compared to pyridoxamine”. In the case of `CN(C)c1ccc(/C=C2\C(=O)N(c3ccc(S(N)(=O)=O)cc3)N=C2C(F)(F)F)cc1` [compound 51, 4-[4-(4-dimethylamino-benzyliden)-5-oxo-3-trifluoromethyl-4,5-dihydro-pyrazol-1-yl]-benzenesulfonamide], the “Pentosidine Formation Ratio (%) at 5 mM Drug Concentration” value in the assay on pentosidine formation [3] is 41.68%. Same read-out and setting: in the case of `O=C1/C(=C\c2ccc(O)cc2)C(C(F)(F)F)=NN1c1ccccc1` [compound 53, 4-(4-hydroxy-benzylidene)-2-phenyl-5-trifluoromethyl-2,4-dihydro-pyrazol-3-one] it was 66.76%.

Regarding `CC1=NN(c2ccc(C)c(C)c2)C(=O)/C1=C\c1ccc(O)cc1O` [compound 54, 4-(2,4-dihydroxy-benzylidene)-2-(3,4-dimethyl-phenyl)-5-methyl-2,4-dihydro-pyrazol-3-one], the “Pentosidine Formation Ratio (%) at 5 mM Drug Concentration” value in the assay on pentosidine formation [3] amounted to 73.48%.

For the compound `CC1=NN(c2ccc3ccccc3c2)C(=O)/C1=C/c1ccc(O)cc1` [compound 58], the “Pentosidine Formation Ratio (%) at 5 mM Drug Concentration” value in the assay on pentosidine formation [3] was 0.07%. The same measure, in the same setting: in the case of `COc1ccc(/C=C2/C(=O)N(c3ccccc3)N=C2C)c(OC)c1O` [compound 59, 4-(3-hydroxy-2,4-dimethoxy-benzylidene)-5-methyl-2-phenyl-2,4-dihydro-pyrazol-3-one] it was 5.3%.

As for `COc1cc(/C=C2/C(=O)N(c3ccc(C(=O)OC(C)C)cc3)N=C2C)ccc1O` [compound 60], in the assay on pentosidine formation [3], the “Pentosidine Formation Ratio (%) at 5 mM Drug Concentration” value was 9.02%. Regarding `COc1cc(/C=C2/C(=O)N(c3ccc(Cl)c(C(=O)O)c3)N=C2C)c(Cl)cc1O` [compound 61, 2-chloro-5-[4-(2-chloro-4-hydroxy-5-methoxy-benzylidene)-3-methyl-5-oxo-4,5-dihydro-pyrazol-1-yl]-benzoic acid], in the assay on pentosidine formation [3], the “Pentosidine Formation Ratio (%) at 5 mM Drug Concentration” value turned out to be 46.52%. On the same count and under the same terms, with `CC1=NN(c2ccccc2)C(=O)/C1=C/N(C)C` [compound 65, 4-dimethylaminomethylene-5-methyl-2-phenyl-2,4-dihydro-pyrazol-3-one] the figure was 62.43%; with `CC1=NN(c2ccccc2)C(=O)/C1=C/c1c(C)nn(-c2ccccc2)c1O` [compound 66, 4-(5-hydroxy-3-methyl-1-phenyl-1H-pyrazol-4-ylmethylene)-5-methyl-2-phenyl-2,4-dihydro-pyrazol-3-one], 15.17%. Turning to `CC1=NN(c2ccccc2)C(=O)/C1=C/c1ccc(Cl)cc1` [compound 67], the “Pentosidine Formation Ratio (%) at 5 mM Drug Concentration” value in the assay on pentosidine formation [3] was 9.09%.

Take `Cc1ncc2c(c1O)C(c1c(C)nn(-c3ccccc3)c1O)OC2` (stereo not drawn) [compound 68]: in the assay with pentosidine formation [3], the “Pentosidine Formation Ratio (%) at 5 mM Drug Concentration” value stood at 2.82%. In the case of `Cc1ncc2c(c1O)C(c1c(C)nn(-c3ccccc3)c1O)OC2.Cl` (stereo not drawn) [compound 69, 1-(5-hydroxy-3-methyl-1-phenyl-1H-pyrazol-4-yl)-6-methyl-1,3-dihydro-furo [3,4-c]pyridin-7-ol], the “Pentosidine Formation Ratio (%) at 5 Concentration” value with pentosidine formation [3] came to 2.94%.

On to `CC1=NN(c2ccccc2)C(=O)/C1=C/c1ccc(O)cc1` [compound 70, 4-(4-hydroxy-benzylidene)-5-methyl-2-phenyl-2,4-dihydro-pyrazol-3-one], for which the “Pentosidine Formation Ratio (%) at 5 Concentration” value in the assay on pentosidine formation [3] is 0.04%.

As for `CC1=NN(c2cccc(Cl)c2)C(=O)/C1=C/c1ccc(O)cc1` [compound 71, 2-(3-chloro-phenyl)-4-(4-hydroxy-benzylidene)-5-methyl-2,4-dihydropyrazol-3-one], the “Pentosidine Formation Ratio (%) at 5 Concentration” value in the assay on pentosidine formation [3] is 4.63%. The same measure, in the same setting: in the case of `CC1=NN(c2ccccc2)C(=O)/C1=C/c1ccc(OCc2ccccc2)cc1` [compound 72, 4-(4-benzyloxy-benzylidene)-5-methyl-2-phenyl-2,4-dihydropyrazol-3-one] it was 7.63%; in that of `CC1=NN(c2cccc(Cl)c2)C(=O)/C1=N/O` [compound 73, 2-(3-chloro-phenyl)-5-methyl-2H-pyrazol-3,4-dione-4-oxime], 66.42%; in that of `CCOC(=O)C1=NN(c2ccccc2)/C(=C2\C(=O)N(c3ccccc3)N=C2c2ccccc2)S1` [compound 74], 87.24%.

(Values after patent publication US20120065198A2, “Detection and Treatment of Schizophrenia” (Tokai University Educational System, priority 2007, published 2012).)
